Experiments:
[1] = biological target: T1, histamine H2 -receptor (Cavia porcellus, UniProt P47747); assay: guinea pig atrium test (histamine H2-antagonist activity in vitro); type: cell-based; details: isolated guinea pig right atrium, histamine-stimulated rate of beating, 60 min contact, 37° C., Schild plot; read-out: pA2 value (converted)
T1 construct: isolated portion of the guinea pig right atrium is secured under tension; from tissue; host or cells: isolated guinea pig right atrium
Method: The histamine H2 -antagonist activity of the compounds of formula (1) can be determined in vitro in the guinea pig atrium test. In this test a spontaneously beating isolated portion of the guinea pig right atrium is secured under tension (300 mg) between an anchorage and a transducer in a 15 ml tissue bath and immersed in McEwens solution with constant aeration at a temperature of 37° C. The output from the transducer is amplified. Output is in turn fed to a flat bed recorder. Measured amounts of histamine are added to the tissue bath so that the histamine concentration increases step-wise until the rate of beating reaches a maximum. The tissue bath is washed out and filled with fresh McEwens solution containing compound under test. The solution is left in contact with the tissue for 60 min. and measured amounts of histamine are added again until a maximum rate is recorded. The assay is repeated with increasing concentrations of test compound and the dose of histamine giving 50% of maximum rate is noted. A dose ratio (DR) was calculated by comparing the concentrations of histamine required to produce 50% maximum response in the absence and in the presence of the antagonist. A plot of Log DR-1 against Log D (the concentration of compound under test) is made and the point of intersection with the Log (DR-1) ordinate is taken as the measure of the activity (pA2 value).

[2] = biological target: T2, histamine H1 -receptor (Cavia porcellus, UniProt P31389); assay: guinea pig ileum test (histamine H1-antagonist activity in vitro); type: cell-based; details: isolated guinea pig ileum, histamine-induced contraction, 8 min contact, 30° C., Schild plot; read-out: pA2 value (converted)
T2 construct: an isolated portion of the guinea pig ileum is secured under tension; from tissue; host or cells: isolated guinea pig ileum
T2 sequence (P31389 whole entry): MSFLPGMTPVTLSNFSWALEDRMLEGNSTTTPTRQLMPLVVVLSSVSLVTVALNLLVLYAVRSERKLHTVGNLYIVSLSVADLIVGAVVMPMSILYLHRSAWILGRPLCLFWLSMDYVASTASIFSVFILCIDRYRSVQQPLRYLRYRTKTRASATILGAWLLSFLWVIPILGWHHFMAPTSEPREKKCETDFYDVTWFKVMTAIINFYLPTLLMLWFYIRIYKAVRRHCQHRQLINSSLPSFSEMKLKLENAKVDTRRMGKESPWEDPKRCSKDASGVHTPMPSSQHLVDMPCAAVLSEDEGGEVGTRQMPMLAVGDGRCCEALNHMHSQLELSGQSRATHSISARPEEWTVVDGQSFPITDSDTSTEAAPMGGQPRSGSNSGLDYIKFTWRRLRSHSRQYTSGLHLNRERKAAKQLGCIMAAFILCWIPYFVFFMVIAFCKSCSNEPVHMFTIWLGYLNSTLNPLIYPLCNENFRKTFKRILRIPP
Method: In this test an isolated portion of the guinea pig ileum is secured under tension (500 mg) between an anchorage and a transducer in a 10 ml tissue bath and immersed in magnesium free Tyrode solution with constant aeration at a temperature of 30° C. The output from the transducer is amplified. The amplified output is in turn fed to a flat bed recorder. Measured amounts of histamine are added to the tissue bath so that the histamine concentration increases step-wise until the force of the contraction reaches a maximum. The tissue bath is washed out and filled with fresh magnesium free Tyrode solution containing compound under test. The solution is left in contact with the tissue for 8 min. and measured amounts of histamine are added again until a maximum contraction is recorded. The assay is repeated with increasing concentrations of test compound and the dose of histamine giving 50% of maximum contraction is noted. A dose ratio (DR) was calculated by comparing the concentrations of histamine required to produce 50% maximum response in the absence and in the presence of the antagonist. A plot of Log DR-1 against Log D (the concentration of compound under test) is made and the point of intersection with the Log (DR-1) ordinate is taken as the measure of the activity (pA2 value).

T1 sequence (P47747 whole entry): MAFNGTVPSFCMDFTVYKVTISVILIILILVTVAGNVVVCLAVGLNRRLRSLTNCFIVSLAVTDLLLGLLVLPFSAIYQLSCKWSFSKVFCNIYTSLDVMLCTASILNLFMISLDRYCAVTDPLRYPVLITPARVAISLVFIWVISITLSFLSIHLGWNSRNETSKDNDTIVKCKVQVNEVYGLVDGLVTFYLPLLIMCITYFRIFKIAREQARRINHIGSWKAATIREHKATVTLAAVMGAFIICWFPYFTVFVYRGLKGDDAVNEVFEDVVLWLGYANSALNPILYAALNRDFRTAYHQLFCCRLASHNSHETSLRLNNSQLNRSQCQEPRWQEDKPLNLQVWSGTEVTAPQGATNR

SMILES	Kb [1] [µM]	Kb [2] [µM]
Cc1cc(Br)cnc1CCCCN=C(NC#N)NCc1ccccc1 [Example 2, N-cyano-N'-benzyl-N"-[4-(5-bromo-3-methylpyrid-2-yl)-butyl]-guanidine]	> 10	< 0.01
CNC(=NCCCCc1ncc(Br)cc1C)NC#N [Example 1, N-cyano-N'-methyl-N"-[4-(5-bromo-3-methylpyrid-2-yl)-butyl]-guanidine]	> 10	< 0.01
